Source: article PMC3476531, “Synergy of Peptide and Sugar in O-GlcNAcase Substrate Recognition” (Chemistry & Biology, 2012)

Target: CpOGA (Clostridium perfringens, UniProt Q0TR53)
Conditions: read-out: Michaelis constant (KM) of glycopeptide substrate for CpOGA; pH 7.4

Substance	Km [µM]
PVSVPYS(O-GlcNAc)SAQSTS [TAB1 (Ser395) 13]	36 ± 1
VAHS(O-GlcNAc)GAK [hOGA (Ser405) 7]	40 ± 10
p53 (Ser149) 11: 11-residue O-GlcNAc glycopeptide derived from p53 Ser149 site	2.9 ± 0.4
